Assay results: ChEMBL document CHEMBL1201862, “PubChem BioAssay data set” (2004)
Calls of active or inactive are those of the source.

Tests used:
[1] = biological target: T1, Oxysterols receptor LXR-beta (Homo sapiens, UniProt P55055); type: functional, cell-based
T1 sequence (P55055 whole entry): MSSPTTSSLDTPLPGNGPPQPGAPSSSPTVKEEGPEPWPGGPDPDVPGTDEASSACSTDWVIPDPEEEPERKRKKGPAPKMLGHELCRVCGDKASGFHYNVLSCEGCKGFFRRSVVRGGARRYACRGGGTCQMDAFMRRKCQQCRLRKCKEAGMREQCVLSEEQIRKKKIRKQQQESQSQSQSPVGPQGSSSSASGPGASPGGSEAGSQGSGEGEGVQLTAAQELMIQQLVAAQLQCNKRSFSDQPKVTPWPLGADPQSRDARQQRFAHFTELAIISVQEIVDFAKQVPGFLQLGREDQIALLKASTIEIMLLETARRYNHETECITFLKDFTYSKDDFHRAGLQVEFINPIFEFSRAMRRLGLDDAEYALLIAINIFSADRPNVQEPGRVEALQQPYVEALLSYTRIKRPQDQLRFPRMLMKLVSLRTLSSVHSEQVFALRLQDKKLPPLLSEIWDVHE

[2] = biological target: T2, Nuclear receptor subfamily 0 group B member 1 (Homo sapiens, UniProt P51843); type: functional, cell-based;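 also: HEK293T cells transfected with SF-1 and DAX-1 plus StAR promoter luciferase reporter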
T2 sequence (P51843 whole entry): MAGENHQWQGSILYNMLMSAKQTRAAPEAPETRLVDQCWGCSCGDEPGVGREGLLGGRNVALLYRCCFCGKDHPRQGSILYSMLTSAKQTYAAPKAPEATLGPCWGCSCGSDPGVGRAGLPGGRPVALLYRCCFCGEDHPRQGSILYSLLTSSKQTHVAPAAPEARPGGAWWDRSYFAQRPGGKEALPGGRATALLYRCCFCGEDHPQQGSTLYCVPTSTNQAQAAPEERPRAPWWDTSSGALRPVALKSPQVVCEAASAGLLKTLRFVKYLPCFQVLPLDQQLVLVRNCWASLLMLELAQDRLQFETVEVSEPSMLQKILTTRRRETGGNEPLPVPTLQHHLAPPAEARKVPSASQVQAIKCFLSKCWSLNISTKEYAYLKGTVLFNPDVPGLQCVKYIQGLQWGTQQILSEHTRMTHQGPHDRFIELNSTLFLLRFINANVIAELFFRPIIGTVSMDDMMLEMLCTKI

cells [3] = type: functional, cell-based
[4] = biological target: Fructose-bisphosphate aldolase (Mycobacterium tuberculosis, UniProt P9WQA3); experiment: Fluorescence-based biochemical high throughput dose response assay for inhibitors of the fructose-bisphosphate aldolase (FBA) of M. tuberculosis.; type: functional
Beta-lactamase [5] = biological target: Beta-lactamase (Salmonella choleraesuis (strain SC-B67), UniProt Q5J463); experiment: Epi-absorbance-based counterscreen for selective VIM-2 inhibitors: dose response biochemical high throughput screening assay to identify inhibitors of TEM-1 serine-beta-lactamase.
Beta-lactamase [6] = biological target: T3, Beta-lactamase (Pseudomonas aeruginosa, UniProt Q79MP6); experiment: […] counterscreen for selective VIM-2 inhibitors: dose response biochemical high throughput screening assay to identify inhibitors of IMP-1 metallo-beta-lactamase.
Beta-lactamase [7] = biological target: T3, Beta-lactamase; experiment: inhibition of IMP-1 beta-lactamase activity – biochemical, epi-absorbance, selectivity assay for VIM-2 inhibitor project, dose response (AID 1920)
[8] = biological target: T1, Oxysterols receptor LXR-beta; type: functional, cell-based; remark: listed apart in the source
cells [9] = experiment: cells
Vero = experiment: viability loss in Vero cells – cell-based, plate reader, cherry-pick samples, cytotoxicity control, dose response (AID 687020); type: functional; conditions: Chlorocebus sabaeus
[10] = biological target: T4, DNA repair protein RAD52 homolog (Homo sapiens, UniProt P43351); type: functional, biochemical
T4 sequence (P43351 whole entry): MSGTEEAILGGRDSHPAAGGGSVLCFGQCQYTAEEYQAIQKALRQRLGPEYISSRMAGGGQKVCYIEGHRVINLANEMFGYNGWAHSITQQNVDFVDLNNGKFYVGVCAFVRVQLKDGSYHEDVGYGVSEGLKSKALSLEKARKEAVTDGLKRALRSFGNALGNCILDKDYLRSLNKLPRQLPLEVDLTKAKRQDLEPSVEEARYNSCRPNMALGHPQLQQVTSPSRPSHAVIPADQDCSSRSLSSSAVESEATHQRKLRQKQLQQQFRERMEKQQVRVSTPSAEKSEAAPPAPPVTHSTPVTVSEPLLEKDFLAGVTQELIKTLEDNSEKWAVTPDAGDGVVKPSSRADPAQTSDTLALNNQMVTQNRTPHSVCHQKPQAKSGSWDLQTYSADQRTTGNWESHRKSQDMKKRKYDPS

[11] = viability loss in THP-1 monocytes – THP-1 cells, cytotoxicity control for Vif-APOBEC3G degradation inhibitor project, dose response (AID 1117359); type: functional; conditions: THP-1
[12] = biological target: DNA repair and recombination protein RAD54-like (Homo sapiens, UniProt Q92698); experiment: RAD54 Holliday junction migration blockers – biochemical, fluorescence, cherry-picked samples, dose series, confirmation (AID 651657); type: functional
[13] = biological target: Induced myeloid leukemia cell differentiation protein Mcl-1 (Homo sapiens, UniProt Q07820); type: functional
Paired box protein Pax-8 = Paired box protein Pax-8 (Homo sapiens, UniProt Q06710); experiment: PAX8 transcriptional activity inhibition in RMG-I – RMG-I cells, luciferase, cherry-pick, dose response (AID 687027); type: functional, cell-based;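 also: luciferase reporter driven by Pax8 target thyroperoxidase promoter measured by SteadyGlo luminescence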
[14] = fluconazole-exposed Candida albicans growth modulators – fluorescence, retest, confirmation (AID 2467); type: functional, cell-based
INS1 = experiment: INS-1E survival protection against cytokine death – cell-based, luminescence, retest, dose response (AID 449756); type: functional; conditions: Rattus norvegicus;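 also: cell death triggered by IL-1 beta plus TNF-alpha plus IFN-gamma mixture; protective hits raise ATP signal compared with cytokine alone wells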
[15] = NIH-3T3 fibroblast cytotoxicity, dose response, cytotoxicity control, cell-based, fluorescence, Alamar Blue, secondary assay (AID 2327); type: functional;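 also: NIH-3T3 mouse fibroblasts cultured with fluconazole at 8 µg/mL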
[16] = Trypanosoma cruzi growth suppression in host cells – NIH3T3 host cells, beta-gal luminescence, confirmation (AID 2044); type: functional, cell-based;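 also: intracellular parasites grown in NIH/3T3 mouse fibroblasts as host cells; luminescent beta-galactosidase reporter signal from transgenic T. cruzi replicating inside host cells; inhibitors lower the luminescence signal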
[17] = biological target: Eukaryotic translation initiation factor 4E (Mus musculus, UniProt P63073); experiment: blockers of eIF4G binding by eIF4E – biochemical, TR-FRET, dose response (AID 855); type: functional;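 also: potency for disrupting eIF4E binding to eIF4GI seen as loss of FRET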
[18] = NIH3T3 cell viability loss – ATP luminescence, mouse fibroblasts, counter-screen, dose response (AID 2010); type: functional, cell-based;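 also: cells exposed to compound for about 90 hours before reading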
[19] = biological target: Histone-lysine N-methyltransferase NSD2 (Homo sapiens, UniProt O96028); type: biochemical
Histone-lysine N-methyltransferase NSD2, sequence (O96028 whole entry): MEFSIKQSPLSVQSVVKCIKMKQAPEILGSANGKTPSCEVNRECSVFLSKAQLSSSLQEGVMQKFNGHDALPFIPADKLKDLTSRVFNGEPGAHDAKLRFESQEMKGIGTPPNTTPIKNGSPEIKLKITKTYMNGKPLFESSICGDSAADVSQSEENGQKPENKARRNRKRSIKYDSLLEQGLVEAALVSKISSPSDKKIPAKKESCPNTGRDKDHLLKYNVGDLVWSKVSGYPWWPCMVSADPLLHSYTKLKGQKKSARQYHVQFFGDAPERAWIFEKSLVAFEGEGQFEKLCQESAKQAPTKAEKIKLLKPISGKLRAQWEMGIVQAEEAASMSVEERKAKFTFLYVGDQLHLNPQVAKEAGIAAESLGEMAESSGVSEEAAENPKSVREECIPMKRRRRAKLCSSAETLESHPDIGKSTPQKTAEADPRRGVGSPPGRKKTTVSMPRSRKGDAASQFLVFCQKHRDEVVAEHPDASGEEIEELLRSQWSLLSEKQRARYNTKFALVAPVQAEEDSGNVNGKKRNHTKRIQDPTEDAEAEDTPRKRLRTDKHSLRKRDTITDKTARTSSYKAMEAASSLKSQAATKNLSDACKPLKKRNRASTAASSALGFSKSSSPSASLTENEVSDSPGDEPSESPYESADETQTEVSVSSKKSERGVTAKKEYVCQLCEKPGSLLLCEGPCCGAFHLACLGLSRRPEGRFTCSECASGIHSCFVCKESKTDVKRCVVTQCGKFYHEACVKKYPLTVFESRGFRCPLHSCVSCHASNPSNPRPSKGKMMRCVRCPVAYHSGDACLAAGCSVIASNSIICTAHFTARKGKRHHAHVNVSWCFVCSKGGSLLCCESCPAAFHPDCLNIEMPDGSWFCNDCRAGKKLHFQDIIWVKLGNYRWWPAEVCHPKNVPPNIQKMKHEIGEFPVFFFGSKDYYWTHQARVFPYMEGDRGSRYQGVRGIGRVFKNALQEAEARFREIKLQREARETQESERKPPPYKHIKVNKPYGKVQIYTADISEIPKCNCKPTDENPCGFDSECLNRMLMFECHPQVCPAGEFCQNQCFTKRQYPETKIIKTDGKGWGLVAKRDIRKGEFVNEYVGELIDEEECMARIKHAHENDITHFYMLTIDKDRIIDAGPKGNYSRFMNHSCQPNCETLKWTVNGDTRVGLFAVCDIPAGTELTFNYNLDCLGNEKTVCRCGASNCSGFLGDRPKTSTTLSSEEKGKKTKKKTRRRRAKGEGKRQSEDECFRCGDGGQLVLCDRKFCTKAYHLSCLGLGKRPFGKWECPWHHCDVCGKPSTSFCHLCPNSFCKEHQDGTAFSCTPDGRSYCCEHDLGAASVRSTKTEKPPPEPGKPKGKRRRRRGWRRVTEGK

Fructose-bisphosphate aldolase, sequence (P9WQA3 whole entry): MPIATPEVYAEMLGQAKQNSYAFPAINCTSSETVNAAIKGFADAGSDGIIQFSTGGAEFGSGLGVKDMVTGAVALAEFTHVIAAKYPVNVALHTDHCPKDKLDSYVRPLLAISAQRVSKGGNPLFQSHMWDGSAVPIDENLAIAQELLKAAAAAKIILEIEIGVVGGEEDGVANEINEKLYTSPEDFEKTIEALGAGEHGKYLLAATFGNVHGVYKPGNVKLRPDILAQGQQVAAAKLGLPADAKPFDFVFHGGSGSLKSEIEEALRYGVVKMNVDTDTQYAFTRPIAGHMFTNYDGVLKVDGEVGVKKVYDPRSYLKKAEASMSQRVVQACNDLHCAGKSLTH
T3 sequence (Q79MP6 whole entry): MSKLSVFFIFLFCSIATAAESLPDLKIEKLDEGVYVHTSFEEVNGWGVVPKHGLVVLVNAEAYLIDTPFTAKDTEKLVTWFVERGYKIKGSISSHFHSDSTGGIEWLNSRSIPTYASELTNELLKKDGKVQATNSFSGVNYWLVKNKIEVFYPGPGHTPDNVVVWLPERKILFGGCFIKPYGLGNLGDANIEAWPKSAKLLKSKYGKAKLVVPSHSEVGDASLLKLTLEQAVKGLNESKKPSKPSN
DNA repair and recombination protein RAD54-like, sequence (Q92698 whole entry): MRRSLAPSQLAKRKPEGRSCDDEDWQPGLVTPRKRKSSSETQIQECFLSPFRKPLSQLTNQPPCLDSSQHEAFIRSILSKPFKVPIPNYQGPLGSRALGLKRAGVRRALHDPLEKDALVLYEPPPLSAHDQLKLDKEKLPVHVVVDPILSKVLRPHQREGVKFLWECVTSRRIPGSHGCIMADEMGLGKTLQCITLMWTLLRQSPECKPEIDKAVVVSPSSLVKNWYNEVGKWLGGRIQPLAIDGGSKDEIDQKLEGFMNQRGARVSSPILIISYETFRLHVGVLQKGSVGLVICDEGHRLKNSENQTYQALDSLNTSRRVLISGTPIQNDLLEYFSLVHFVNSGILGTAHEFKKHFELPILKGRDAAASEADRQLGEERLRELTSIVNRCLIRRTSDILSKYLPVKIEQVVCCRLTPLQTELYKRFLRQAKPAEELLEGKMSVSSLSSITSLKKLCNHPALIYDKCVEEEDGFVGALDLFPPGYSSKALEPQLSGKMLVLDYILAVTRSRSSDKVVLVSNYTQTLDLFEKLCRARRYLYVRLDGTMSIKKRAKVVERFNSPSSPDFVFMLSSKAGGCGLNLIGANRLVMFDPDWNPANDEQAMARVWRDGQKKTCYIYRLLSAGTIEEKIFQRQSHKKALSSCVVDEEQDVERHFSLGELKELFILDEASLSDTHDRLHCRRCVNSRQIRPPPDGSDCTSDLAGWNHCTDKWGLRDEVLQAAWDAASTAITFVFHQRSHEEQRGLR
Paired box protein Pax-8, sequence (Q06710 whole entry): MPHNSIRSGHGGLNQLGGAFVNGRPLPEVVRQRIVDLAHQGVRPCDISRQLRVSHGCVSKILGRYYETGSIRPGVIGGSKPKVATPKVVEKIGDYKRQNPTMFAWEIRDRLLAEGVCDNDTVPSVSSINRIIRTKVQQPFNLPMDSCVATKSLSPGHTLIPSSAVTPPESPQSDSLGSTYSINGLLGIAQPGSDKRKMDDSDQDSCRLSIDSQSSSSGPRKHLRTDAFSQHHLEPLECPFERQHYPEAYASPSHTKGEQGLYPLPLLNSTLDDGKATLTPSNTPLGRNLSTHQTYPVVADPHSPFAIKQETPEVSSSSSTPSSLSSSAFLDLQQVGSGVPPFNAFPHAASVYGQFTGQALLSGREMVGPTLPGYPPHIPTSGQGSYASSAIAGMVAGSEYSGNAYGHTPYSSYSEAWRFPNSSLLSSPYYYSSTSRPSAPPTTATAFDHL
Eukaryotic translation initiation factor 4E, sequence (P63073 whole entry): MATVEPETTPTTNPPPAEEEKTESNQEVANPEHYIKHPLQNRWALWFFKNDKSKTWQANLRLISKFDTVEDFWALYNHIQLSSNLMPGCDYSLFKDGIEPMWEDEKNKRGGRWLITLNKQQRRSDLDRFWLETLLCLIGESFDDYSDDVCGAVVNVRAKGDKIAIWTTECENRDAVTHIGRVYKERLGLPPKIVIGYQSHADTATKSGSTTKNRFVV
Induced myeloid leukemia cell differentiation protein Mcl-1, sequence (Q07820 whole entry): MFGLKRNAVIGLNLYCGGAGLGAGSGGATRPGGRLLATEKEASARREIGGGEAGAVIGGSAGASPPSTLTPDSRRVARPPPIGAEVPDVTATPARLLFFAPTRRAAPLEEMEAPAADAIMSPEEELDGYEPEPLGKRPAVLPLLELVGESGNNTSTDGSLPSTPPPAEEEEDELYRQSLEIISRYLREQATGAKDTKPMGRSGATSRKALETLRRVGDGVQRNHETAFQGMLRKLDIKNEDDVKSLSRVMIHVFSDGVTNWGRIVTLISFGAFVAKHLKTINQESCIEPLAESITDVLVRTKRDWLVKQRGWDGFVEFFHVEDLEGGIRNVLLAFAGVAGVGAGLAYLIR
Beta-lactamase (Salmonella choleraesuis (strain SC-B67), UniProt Q5J463), sequence (Q5J463 whole entry): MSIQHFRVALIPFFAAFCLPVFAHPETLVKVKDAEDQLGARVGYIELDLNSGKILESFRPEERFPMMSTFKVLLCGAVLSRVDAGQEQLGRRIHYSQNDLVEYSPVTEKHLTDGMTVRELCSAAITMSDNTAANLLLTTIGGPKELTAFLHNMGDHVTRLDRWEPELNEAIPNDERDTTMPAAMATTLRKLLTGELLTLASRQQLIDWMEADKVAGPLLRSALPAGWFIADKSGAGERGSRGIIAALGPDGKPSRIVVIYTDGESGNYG

COc1cccc(-c2nc3ccccc3s2)c1
EC50 [1]: > 67.5 µM (inactive)

O=C(c1ccc2nc(Cc3ccccc3F)oc2c1)N1CC[C@H](O)C1
IC50 [2]: > 67.6 µM (inactive) | IC50 (cells [3]): > 67.6 µM (inactive)

COCCn1c(SCC(=O)N2CCCCC2)nc2c(c1=O)SCC2
IC50 [4]: > 9.99 µM (inactive)

O=c1c2ccccc2cnn1Cc1nnc(S)n1C1CC2CCC1C2 (stereo not drawn)
IC50 (Beta-lactamase [5]): > 59.6 µM (inactive) | IC50 (Beta-lactamase [6]): > 59.6 µM (inactive) | IC50 (Beta-lactamase [7]): > 59.6 µM (inactive)

c1ccc(-c2noc(-c3cccc4ccccc34)n2)nc1
EC50 [8]: > 67.5 µM (inactive) | EC50 (cells [9]): > 67.5 µM (inactive)

COc1ccccc1CNC(=O)C(=O)Nc1ccc(C(=O)N2CCC(C)CC2)cc1
AC50 (Vero): 25.8 µM (active)

CCOCCCN=C(S)Nc1ccc2nc(N3CCN(CC)CC3)cc(C)c2c1
AC50 [10]: 33 µM (active) | CC50 [11]: > 40 µM (active) | AC50 [12]: 100 µM (inactive)

CN1c2ccccc2N(C)C1(C)c1ccccc1
IC50 [13]: 4.95 µM (active) | AC50 (Paired box protein Pax-8): 9.4 µM (active) | EC50 [14]: > 38 µM (not active) | AC50 (INS1): 0.283 µM (active) | EC50 [15]: > 150 µM (inactive) | EC50 [16]: 0.278 µM (active) | IC50 [17]: > 64 µM (inactive) | EC50 [18]: > 60 µM (not active) | AC50 [19]: > 20 µM (inactive)

Cc1oc(C)c(C(=O)Nc2ccc(CC(=O)O)cc2)c1C(=O)Nc1ccc(CC(=O)O)cc1
IC50 [4]: > 9.99 µM (inactive)
